Measured values published in article PMC8399196, “Synthesis, Characterization, and Anticancer Activity of Benzothiazole Aniline Derivatives and Their Platinum (II) Complexes as New Chemotherapy Agents” (Pharmaceuticals, 2021).

Experiments:
A549 cells = assay: CCK-8 cell viability assay, A549; format: cell-based; details: A549 human lung cancer cells, CCK-8, 24 h, mean ± SEM, n = 3
Description: (§1) Human colorectal adenocarcinoma cells (HT-29, ATCC® HTB-38), adenocarcinomic human alveolar basal epithelial cells (A549, ATCC® CCL-185), and prostate cancer (PC-3, ATCC® CRL-1435) were cultured in the growth medium, containing Roswell Park Memorial Institute Medium (RPMI1640) WelGENE, Daegu, Korea supplemented with 10% (v/v) fetal bovine serum (FBS, Gibco, Grand Island, NY, USA) and 1% antibiotics-antimycotics (Gibco). Human breast adenocarcinoma cells (MCF-7, ATCC® HTB-22™), hepatocellular carcinoma (HepG2, ATCC® HB-8065™), Rattus brain glioma (C6, ATCC ® CRL-2303™), and human renal carcinoma (Caki-2, ATCC® HTB-47™) cells were cultured in Dulbecco’s modified Eagle’s medium (DMEM, WelGENE, Daegu, Korea) supplemented with 10% (v/v) FBS (Gibco) and 1% antibiotics-antimycotics (Gibco). Mouse brain neural (NE-4C, ATCC® CRL-2925™) and human cervix adenocarcinoma cells (HeLa, ATCC® CCL-2™) were cultured in Eagle’s minimum essential medium (EMEM, ATCC® 30-2003™) supplemented with 10% FBS (Gibco) and 1% antibiotics-antimycotics (Gibco). Mouse liver normal cells (AML12, ATCC® CRL-2254™) were cultured in DMEM/F-12 (WelGENE) supplemented with 10% FBS (Gibco), 1 × ITS (10 μg/mL insulin, 5.5 μg/mL transferrin, 6.7 ng/mL selenium, Gibco), […] 1% antibiotics-antimycotics (Gibco). Human breast epithelial cells (MCF 10A, ATCC® CRL-10317™) were cultured in DMEM/F-12 (WelGENE) supplemented with 5% horse serum (Gibco), 20 ng/mL epidermal growth factor (EGF, Peprotech Inc., Rocky Hill, NJ, USA), […] (Sigma-Aldrich, St. Louis, MO, USA), 100 ng/mL colera toxin (Sigma-Aldrich), 10 μg/mL insulin (Sigma-Aldrich) and 1% antibiotics- (Gibco). Human colon normal epithelial cells (FHC, ATCC® CRL-18317™) were cultured in DMEM/F-12 (WelGENE) supplemented with 10% FBS (Gibco), 10 ng/mL cholera toxin (Sigma-Aldrich), 20 ng/mL EGF (Peprotech Inc.), 100 μg/mL hydrocortisone (Sigma-Aldrich), 1 × ITS (10 μg/mL insulin, 5.5 μg/mL transferrin, 6.7 ng/mL selenium, Gibco) and 1% antibiotics-antimycotics (with 100 units penicillin, 100 μg streptomycin and 250 ng amphotericin B per mL, Gibco). Cells were incubated in a humidified 5% CO2 atmosphere at 37 °C.
(§2) To evaluate cytotoxicity, cells were seeded in a 96-well plate (FHC, 0.5 × 10^4 cells/well; Caki-2 and MCF 10A, 1 × 10^4 cells/well; AML12, 1.2 × 10^4 cells/well; HeLa, HEK-293, A549, and PC-3, 1.5 × 10^4 cells/well; HT-29, MCF-7, C6, HepG2, and NE-4C, 2 × 10^4 cells/well). […] In addition, cell counting kit-8 (CCK-8, Dojindo Laboratories, Kumamoto, Japan) solution was added to each well, and the plate was incubated for 2 h. The absorbance was then measured at 450 nm using a microplate reader (SpectraMax i3, Molecular Devices, San Jose, CA, USA). The IC50 and logIC50 values were calculated in GraphPad Prism (GraphPad Prism Software Inc. Version 5.02, San Diego, CA, USA). All experiments were performed, independently, three times. The graph of logIC50 values represents the average value.

PC-3 cells = assay: CCK-8 cell viability assay, PC-3; format: cell-based; details: PC-3 human prostate cancer cells, CCK-8, 24 h, mean ± SEM, n = 3
Description: as §1, §2

MCF-7 cells = assay: CCK-8 cell viability assay, MCF-7; format: cell-based; details: MCF-7 human breast cancer cells, CCK-8, 24 h, mean ± SEM, n = 3
Description: as §1, §2

HeLa cells = assay: CCK-8 cell viability assay, HeLa; format: cell-based; details: HeLa human cervical cancer cells, CCK-8, 24 h, mean ± SEM, n = 3
Description: as §1, §2

AML12 cells = assay: CCK-8 cell viability assay, AML12 normal cells; format: cell-based; details: AML12 normal mouse liver hepatocyte cells, CCK-8, 24 h, mean ± SEM, n = 3
Description: as §1, §2

HepG2 cells = assay: CCK-8 cell viability assay, HepG2; format: cell-based; details: HepG2 human hepatic carcinoma cells, CCK-8, 24 h, mean ± SEM, n = 3
Description: as §1, §2

HT-29 cells = assay: CCK-8 cell viability assay, HT-29; format: cell-based; details: HT-29 human colon cancer cells, CCK-8, 24 h, mean ± SEM, n = 3
Description: as §1, §2

NE-4C cells = assay: CCK-8 cell viability assay, NE-4C normal cells; format: cell-based; details: NE-4C mouse brain neural stem cells, CCK-8, 24 h, mean ± SEM, n = 3
Description: as §1, §2

C6 cells = assay: CCK-8 cell viability assay, C6; format: cell-based, Rattus; details: C6 brain glioma cells, CCK-8, 24 h, mean ± SEM, n = 3
Description: as §1, §2

Caki-2 cells = assay: CCK-8 cell viability assay, Caki-2; format: cell-based; details: Caki-2 human renal cancer cells, CCK-8, 24 h, mean ± SEM, n = 3
Description: as §1, §2

MCF-10A cells = assay: CCK-8 cell viability assay, MCF-10A normal cells; format: cell-based; details: MCF-10A normal human breast epithelial cells, CCK-8, 24 h, mean ± SEM, n = 3
Description: as §1, §2

FHC cells = assay: CCK-8 cell viability assay, FHC normal cells; format: cell-based; details: FHC normal human colon epithelial cells, CCK-8, 24 h, mean ± SEM, n = 3
Description: as §1, §2

HEK-293 cells = assay: CCK-8 cell viability assay, HEK-293 normal cells; format: cell-based; details: HEK-293 human embryonic kidney cells, CCK-8, 24 h, mean ± SEM, n = 3
Description: as §2

[1] = Solubility in water / aqueous media; format: physicochemical
[2] = Stability in buffered aqueous solution by UV-Vis spectroscopy; format: physicochemical
Description: An indispensable feature of any promising anticancer agent is its thermodynamic stability in aqueous media. All prospective agents should be able to reach their target under the conditions encountered in living organisms. Therefore, the stability of the compounds was measured at 1 mM in phosphate-buffered saline (PBS) solution using UV–Vis spectroscopy. […] The stability of the metal complexes is often dependent on the pH value and the pH 4.5–5.0 is crucial since endosomal uptake of the complexes by lysosomes can occur.

| Compound | IC50 (A549 cells) [µM] | IC50 (PC-3 cells) [µM] | IC50 (MCF-7 cells; MCF7) [µM] | IC50 (HeLa cells) [µM] | IC50 (AML12 cells) [µM] | IC50 (HepG2 cells) [µM] | IC50 (HT-29 cells) [µM] | IC50 (NE-4C cells; Neural stem cell) [µM] | IC50 (C6 cells; Rattus norvegicus) [µM] | IC50 (Caki-2 cells) [µM] | IC50 (MCF-10A cells) [µM] | IC50 (FHC cells) [µM] | IC50 (HEK-293 cells; HEK293) [µM] | IC50 (MCF-7 cells) [µM] | IC50 (NE-4C cells) [µM] | IC50 (C6 cells) [µM] | IC50 (HEK-293 cells) [µM] | other results |
| --- | --- | --- | --- | --- | --- | --- | --- | --- | --- | --- | --- | --- | --- | --- | --- | --- | --- | --- |
| Nc1ccc(-c2nc3ccccc3s2)cc1 [BTA, 2-(4-aminophenyl)-benzothiazole, reference compound] | > 500 | 182 ± 7.8 | 104 ± 28.6 | 76.4 ± 23.4 | > 500 | 52 ± 5.7 | 275 ± 5 | 60.9 ± 2.9 | 425 ± 47.7 | 463 ± 44.1 | 401 ± 136 | > 500 | > 500 | – | – | – | – | – |
| N.N.[Cl][Pt][Cl] [Cisplatin, cis-diamminedichloroplatinum-(II), reference compound] | > 500 | > 500 | – | 26.2 ± 5.6 | 32.1 ± 4.4 | 54.2 ± 31.8 | 39.1 ± 0.6 | – | – | > 500 | 95.9 ± 6.7 | > 500 | – | 204 ± 27.3 | 9 ± 0.3 | 227 ± 34.3 | 65.5 ± 4.1 | IC50 (AML12 cells; listed as cisplatin): 32 µM |
| NCC(N)C(=O)Nc1ccc(-c2nc3ccccc3s2)cc1 (centres unmarked) [Compound L1, 2,3-Diamino-N-(4-benzothiazol-2-yl-phenyl)-propionamide] | 100 ± 8.4 | 94.9 ± 0.8 | 65.9 ± 12.3 | 41.9 ± 3.4 | 138 ± 24.1 | 5.9 ± 0.5 | 29.9 ± 0.3 | 36.8 ± 3.7 | 77.8 ± 9.7 | 75.6 ± 3.4 | 65.1 ± 1.9 | 72.7 ± 2 | 68.1 ± 2.8 | – | – | – | – | Solubility in water / aqueous media [1]: soluble in water; Stability, time-dependent UV-Vis spectrum ([2]; 1 mM in PBS (L1Pt: 2% DMSO in PBS), physiological pH 7.4, t = 0, 7, 24 h, 200-450 nm): did not display any significant changes throughout 24 h; Stability, time-dependent UV-Vis spectrum at other pH-values ([2]; 1 mM in PBS, acidic (pH 2), weakly acidic (pH 5), alkaline (pH 12), t = 0, 7, 24 h): no obvious changes in the absorptions peak |
| O=C(Nc1ccc(-c2nc3ccccc3s2)cc1)C(C/N=C/c1ccccc1O)/N=C/c1ccccc1O (centres unmarked) [Compound L2, N-(4-Benzothiazol-2-yl-phenyl)-2,3-bis-[(2-hydroxy-benzylidene)amino] propionamide] | 182.4 ± 0.8 | 116 ± 5 | 98.1 ± 7.9 | 47 ± 6 | > 500 | 14.2 ± 7 | 135 ± 4.4 | 28.2 ± 0.1 | 143 ± 32.7 | 159 ± 4.3 | 79.3 ± 25.4 | 189 ± 10.3 | 139 ± 20.1 | – | – | – | – | – |
| O=C(Nc1ccc(-c2nc3ccccc3s2)cc1)C1C[N+]2=Cc3ccccc3[O][Pt-2]23[O]c2ccccc2C=[N+]13 (centres unmarked) [Compound L2Pt] | > 500 | > 500 | – | 221 ± 15.8 | > 500 | 31.6 ± 3.6 | 173 ± 3.2 | – | – | > 500 | > 500 | > 500 | – | > 500 | 47 ± 4.1 | > 500 | 212 ± 14.9 | – |
| O=C(Nc1ccc(-c2nc3ccccc3s2)cc1)C1CNC(c2ccccn2)=N1 (centres unmarked) [Compound L3, 2-Pyridin-2-yl-4,5-dihydro-1H-imidazole-4-carboxylic acid (4-benzothiazol-2-yl-phenyl)amide] | > 500 | 130 ± 34.7 | 190 ± 16.5 | 98.9 ± 3.5 | > 500 | > 500 | 70.5 ± 0.2 | 22.4 ± 2.4 | 142 ± 15.3 | > 500 | > 500 | > 500 | > 500 | – | – | – | – | – |
| O=C(Nc1ccc(-c2nc3ccccc3s2)cc1)C1CNC2=[N+]1[Pt-2]([Cl])([Cl])[n+]1ccccc12 (centres unmarked) [Compound L3Pt] | > 500 | > 500 | – | > 500 | > 500 | > 500 | > 500 | – | – | > 500 | > 500 | > 500 | – | > 500 | 32.4 ± 6 | > 500 | 206 ± 7.4 | – |
